{"source": "patent US10703745B2", "about": "“Acyl phosphonamidates and acyl benzylamines that are Bcl family antagonists for use in clinical management of conditions caused or mediated by senescent cells and for treating cancer” (Unity Biotechnology, Inc., priority 2018, dated 2020)", "key": {"[1]": {"tested_on": "3MR or INK-ATTAC mice exposed to cigarette smoke", "assay": "Cigarette smoke COPD model, oxygen saturation by pulse oximeter", "type": "in vivo, mouse", "conditions": "after two months of cigarette smoke exposure, compared with untreated controls", "text": "The mice used in this study include the 3MR strain, described in US 2017/0027139 A1 and in Demaria et al., Dev Cell. 2014 Dec. 22; 31(6): 722-733. The 3MR mouse has a transgene encoding thymidine kinase that converts the prodrug ganciclovir (GCV) to a compound that is lethal to cells. The enzyme in the transgene is placed under control of the p16 promoter, which causes it to be specifically expressed in senescent cells. Treatment of the mice with GCV eliminates senescent cells.\nOther mice used in this study include the INK-ATTAC strain, described in US 2015/0296755 A1 and in Baker et al., Nature 2011 Nov. 2; 479(7372):232-236. The INK-ATTAC mouse has a transgene encoding switchable caspase 8 under control of the p16 promoter. The caspase 8 can be activated by treating the mice with the switch compound AP20187, whereupon the caspase 8 directly induces apoptosis in senescent cells, eliminating them from the mouse.\nTo conduct the experiment, six-week-old 3MR (n=35) or INK-ATTAC (n=35) mice were chronically exposed to cigarette smoke generated from a Teague TE-10 system, an automatically-controlled cigarette smoking machine that produces a combination of side-stream and mainstream cigarette smoke in a chamber, which is transported to a collecting and mixing chamber where varying amounts of air is mixed with the smoke mixture. The COPD protocol was adapted from the COPD core facility at Johns Hopkins University (Rangasamy et al., 2004, J. Clin. Invest. 114:1248-1259; Yao et al., 2012, J. Clin. Invest. 122:2032-2045).\nMice received a total of 6 hours of cigarette smoke exposure per day, 5 days a week for 6 months. Each lighted cigarette (3R4F research cigarettes containing 10.9 mg of total particulate matter (TPM), 9.4 mg of tar, and 0.726 mg of nicotine, and 11.9 mg carbon monoxide per cigarette [University of Kentucky, Lexington, Ky.]) was puffed for 2 seconds and once every minute for a total of 8 puffs, with the flow rate of 1.05 L/min, to provide a standard puff of 35 cm3. The smoke machine was adjusted to produce a mixture of side stream smoke (89%) and mainstream smoke (11%) by smoldering 2 cigarettes at one time. The smoke chamber atmosphere was monitored for total suspended particulates (80-120 mg/m3) and carbon monoxide (350 ppm). […]\nAfter two months of cigarette smoke (CS) exposure, lung function was assessed by monitoring oxygen saturation using the MouseSTAT PhysioSuite™ pulse oximeter (Kent Scientific). […] Mice were monitored for 30 seconds and the average peripheral capillary oxygen saturation (SpO2) measurement over this duration was calculated."}, "[2]": {"tested_on": "primary cells from patients with B-cell malignancies", "conditions": "in vitro; cited from earlier work"}, "cancer cells": {"tested_on": "cancer cells", "conditions": "cited from earlier work"}, "[3]": {"tested_on": "LDLR-/- mice fed a high fat diet", "assay": "Atherosclerosis model: body composition by MRI and circulating blood cell counts", "type": "in vivo, mouse", "conditions": "timepoint 3", "protocol": "(§1) Two groups of LDLR−/− mice (10 weeks) are fed a high fat diet (HFD) (Harlan Teklad TD.88137) having 42% calories from fat, beginning at Week 0 and throughout the study. Two groups of LDLR−/− mice (10 weeks) are fed normal chow (−HFD). From weeks 0-2, one group of HFD mice and −HFD mice are treated with Nutlin-3A (25 mg/kg, intraperitoneally). One treatment cycle is 14 days treatment, 14 days off. Vehicle is administered to one group of HFD mice and one group of −HFD mice. At week 4 (timepoint 1), one group of mice are sacrificed and to assess presence of senescent cells in the plaques. For the some of the remaining mice, Nutlin-3A and vehicle administration is repeated from weeks 4-6. At week 8 (timepoint 2), the mice are sacrificed and to assess presence of senescent cells in the plaques. The remaining mice are treated with Nutlin-3A or vehicle from weeks 8-10. At week 12 (timepoint 3), the mice are sacrificed and to assess the level of plaque and the number of senescent cells in the plaques.\n(§2) At the end of timepoint 3, LDLR−/− mice fed a HFD and treated with Nutlin-3A or vehicle (n=3 for all groups) were sacrificed, and aortas were dissected and stained with Sudan IV to detect the presence of lipid. Body composition of the mice was analyzed by MRI, and circulating blood cells were counted by Hemavet™."}, "[4]": {"tested_on": "C57BL/6J mice with surgery-induced osteoarthritis", "assay": "Osteoarthritis model (ACL surgery): qRT-PCR of senescence markers and SASP factors in operated joints", "type": "in vivo, mouse", "conditions": "5.8 μg per operated knee intra-articular, 4 weeks post-surgery", "protocol": "(§3) The model was implemented as follows. C57BL/6J mice underwent surgery to cut the anterior cruciate ligament of one rear limb to induce osteoarthritis in the joint of that limb. During week 3 and week 4 post-surgery, the mice were treated with 5.8 μg of Nutlin-3A (n=7) per operated knee by intra-articular injection, q.o.d. for 2 weeks. At the end of 4 weeks post-surgery, joints of the mice were monitored for presence of senescent cells, assessed for function, monitored for markers of inflammation, and underwent histological assessment.\nTwo control groups of mice were included in the studies performed: one group comprising C57BL/6J or 3MR mice that had undergone a sham surgery (n=3) (i.e., surgical procedures followed except for cutting the ACL) and intra-articular injections of vehicle parallel to the GCV (ganciclovir) treated group; and one group comprising C57BL/6J or 3MR mice that had undergone an ACL surgery and received intra-articular injections of vehicle (n=5) parallel to the GCV-treated group. RNA from the operated joints of mice from the Nutlin-3A treated mice was analyzed for expression of SASP factors (mmp3, IL-6) and senescence markers (p16). qRT-PCR was performed to detect mRNA levels."}, "[5]": {"tested_on": "C57BL/6J mice with surgery-induced osteoarthritis", "assay": "Osteoarthritis model: histopathology of joint tissue", "type": "in vivo, mouse", "conditions": "ACL surgery, 4 weeks post-surgery", "protocol": "as §3"}, "[6]": {"tested_on": "LDLR-/- mice fed a high fat diet", "assay": "Atherosclerosis model: Sudan IV staining of aortic plaques", "type": "in vivo, mouse", "conditions": "timepoint 3 (week 12), 25 mg/kg intraperitoneally, HFD", "protocol": "as §1, §2"}, "[7]": {"tested_on": "C57BL/6J mice with surgery-induced osteoarthritis", "assay": "Osteoarthritis model: weight bearing test of hind limbs", "type": "in vivo, mouse", "conditions": "4 weeks post-surgery", "protocol": "as §3\nFunction of the limbs was assessed 4 weeks post-surgery by a weight bearing test to determine which leg the mice favored. The mice were allowed to acclimate to the chamber on at least three occasions prior to taking measurements. Mice were maneuvered inside the chamber to stand with one hind paw on each scale. The weight that was placed on each hind limb was measured over a three second period. At least three separate measurements were made for each animal at each time point. The results were expressed as the percentage of the weight placed on the operated limb versus the contralateral unoperated limb."}, "[8]": {"tested_on": "LDLR-/- mice fed a high fat diet", "assay": "Atherosclerosis model: RT-PCR of SASP factors and senescent cell markers in aortic arch", "type": "in vivo, mouse", "conditions": "25 mg/kg intraperitoneally, HFD", "protocol": "as §1, with “At week 8 (timepoint 2), the mice are sacrificed and to assess presence of senescent cells in the plaques. The remaining mice are treated with Nutlin-3A or vehicle from weeks 8-10. At week 12 (timepoint 3), the mice are sacrificed and to assess the level of plaque and the number of senescent cells in the plaques.” left out\nAt the end of timepoint 1, LDLR−/− mice fed a HFD and treated with Nutlin-3A or vehicle were sacrificed (n=3, all groups), and the aortic arches were dissected for RT-PCR analysis of SASP factors and senescent cell markers. Values were normalized to GAPDH and expressed as fold-change versus age-matched, vehicle-treated LDLR−/− mice on a normal diet.\nAt the end of timepoint 2, LDLR−/− mice fed a HFD and treated with Nutlin-3A or vehicle (n=3 for all groups) were sacrificed, and aortic arches were dissected for RT-PCR analysis of SASP factors and senescent cell markers. Values were normalized to GAPDH and expressed as fold-change versus age-matched, vehicle-treated LDLR−/− mice on a normal diet."}}, "data": [{"molecule": "CC1(C)CCC(c2ccc(Cl)cc2)=C(CN2CCN(c3ccc(C(=O)NS(=O)(=O)c4ccc(N[C@H](CCN5CCOCC5)CSc5ccccc5)c(S(=O)(=O)C(F)(F)F)c4)cc3)CC2)C1", "note": "[ABT-263, Navitoclax]", "values": [{"measurement": "SpO2 levels", "setting": "[1]", "result": "statistically significant increases"}]}, {"molecule": "CN(C)CC[C@H](CSc1ccccc1)Nc1ccc(S(=O)(=O)NC(=O)c2ccc(N3CCN(Cc4ccccc4-c4ccc(Cl)cc4)CC3)cc2)cc1[N+](=O)[O-]", "note": "[ABT-737]", "values": [{"measurement": "sensitivity of primary cells from patients with B-cell malignancies", "setting": "[2]", "result": "sensitive"}, {"measurement": "dose-limiting toxicity in human patients", "setting": "cancer cells", "result": "dose-limiting thrombocytopenia"}, {"measurement": "efficacy against cancer cells in human patients", "setting": "cancer cells", "result": "effective against some types of cancer cells"}]}, {"molecule": "CC[C@H](C(=O)N1CCCC[C@H]1C(=O)O[C@H](CCc1ccc(OC)c(OC)c1)c1cccc(OCC(=O)NCC(CNC(=O)COc2cccc([C@@H](CCc3ccc(OC)c(OC)c3)OC(=O)[C@@H]3CCCCN3C(=O)[C@@H](CC)c3cc(OC)c(OC)c(OC)c3)c2)CN(C)C)c1)c1cc(OC)c(OC)c(OC)c1", "note": "[AP2018]", "values": [{"measurement": "SpO2 levels", "setting": "[1]", "result": "statistically significant increases"}]}, {"molecule": "COc1ccc(C2=N[C@@H](c3ccc(Cl)cc3)[C@@H](c3ccc(Cl)cc3)N2C(=O)N2CCNC(=O)C2)c(OC(C)C)c1", "note": "[Nutlin-3A]", "values": [{"measurement": "body fat composition", "setting": "[3]; mice fed the high fat diet", "result": "decreased"}, {"measurement": "mass", "setting": "[3]; mice fed the high fat diet", "result": "decreased"}, {"measurement": "lymphocyte counts versus vehicle treated mice", "setting": "[3]", "result": "equivalent"}, {"measurement": "platelet counts versus vehicle treated mice", "setting": "[3]", "result": "equivalent"}, {"measurement": "expression of IL-6 in the tissue", "setting": "[4]; q.o.d. for 2 weeks, mRNA", "result": "reduced the expression back to below the level of the controls"}, {"measurement": "expression of MMP13 in the tissue", "setting": "[4]; q.o.d. for 2 weeks, mRNA", "result": "reduced the expression back to below the level of the controls"}, {"measurement": "expression of p16 in the tissue", "setting": "[4]; q.o.d. for 2 weeks, mRNA", "result": "reduced the expression back to below the level of the controls"}, {"measurement": "senescent cells in the joint", "setting": "[4]", "result": "cleared senescent cells from the joint"}, {"measurement": "destruction of the proteoglycan layer (histopathology)", "setting": "[5]", "result": "completely abrogated this effect"}, {"measurement": "reduction of surface area covered by plaques in the descending aorta", "setting": "[6]", "result": "about 45%"}, {"measurement": "SpO2 levels", "setting": "[1]", "result": "statistically significant increases"}, {"measurement": "weight placed on operated limb versus contralateral unoperated limb (favoring of unoperated hind limb)", "setting": "[7]", "result": "abrogated this effect"}, {"measurement": "expression of SASP factors and senescent cell markers MMP3, MMP13, PAI1, p21, IGFBP2, IL-1A, IL-1B in aortic arch", "setting": "[8]; timepoint 1 (week 4), one treatment cycle", "result": "reduced expression of several SASP factors and senescent cell markers"}, {"measurement": "expression of SASP factors and senescent cell markers in aortic arch", "setting": "[8]; timepoint 2 (week 8), multiple treatment cycles", "result": "reduced expression of most markers"}]}, {"molecule": "Nc1nc(O)c2ncn(COC(CO)CO)c2n1", "note": "[ganciclovir]", "values": [{"measurement": "SpO2 levels", "setting": "[1]", "result": "statistically significant increases"}]}]}
